According to publication PMC7180948, “New Insights into 4-Anilinoquinazolines as Inhibitors of Cardiac Troponin I–Interacting Kinase (TNNi3K)” (Molecules, 2020):

Columns and labels:
Assay in all cases: biochemical
Parameters in all cases: KINOMEscan competition binding panel (Eurofins DiscoverX), single concentration, percent inhibition
Conditions in all cases: read-out: 15 at 1 µM % inhibition
ABL1-phosphorylated = molecular target: T1, ABL1-phosphorylated (Homo sapiens, UniProt P00519)
T1 construct: phosphorylated
Method in brief: (§1)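 KINOMEscan binding panel of >400 kinases, run by Eurofins DiscoverX, with compounds tested at a single concentration of 1 µM.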

AKT3 = AKT3 (Homo sapiens, UniProt Q9Y243)
Method in brief: as §1

ALK = ALK (Homo sapiens, UniProt Q9UM73)
Method in brief: as §1

CDC2L1 = molecular target: T2, CDC2L1 (Homo sapiens, UniProt P21127)
T2 construct: gene CDK11B
Method in brief: as §1

CDK4 = CDK4 (Homo sapiens, UniProt P11802)
Method in brief: as §1

CDKL1 = CDKL1 (Homo sapiens, UniProt Q00532)
Method in brief: as §1

DDR1 = DDR1 (Homo sapiens, UniProt Q08345)
Method in brief: as §1

DLK = molecular target: T3, DLK (Homo sapiens, UniProt Q12852)
T3 construct: gene MAP3K12
Method in brief: as §1

EGFR(G719C) = EGFR(G719C) (Homo sapiens, UniProt P00533, G719C)
Method in brief: as §1

EPHA8 = EPHA8 (Homo sapiens, UniProt P29322)
Method in brief: as §1

[1] = molecular target: T4, JAK3(JH1domain-catalytic) (Homo sapiens, UniProt P52333)
T4 construct: JH1domain-catalytic
Method in brief: as §1

KIT(D816V) = KIT(D816V) (Homo sapiens, UniProt P10721, D816V)
Method in brief: as §1

MEK1 = molecular target: T5, MEK1 (Homo sapiens, UniProt Q02750)
T5 construct: gene MAP2K1
Method in brief: as §1

NEK3 = NEK3 (Homo sapiens, UniProt P51956)
Method in brief: as §1

PDGFRA = PDGFRA (Homo sapiens, UniProt P16234)
Method in brief: as §1

PIK3CA(Q546K) = PIK3CA(Q546K) (Homo sapiens, UniProt P42336, Q546K)
Method in brief: as §1

PLK4 = PLK4 (Homo sapiens, UniProt O00444)
Method in brief: as §1

PRKCI = PRKCI (Homo sapiens, UniProt P41743)
Method in brief: as §1

RIPK2 = RIPK2 (Homo sapiens, UniProt O43353)
Method in brief: as §1

[2] = molecular target: T6, RPS6KA5(Kin.Dom.1-N-terminal) (Homo sapiens, UniProt O75582)
T6 construct: Kin.Dom.1-N-terminal
Method in brief: as §1

STK35 = STK35 (Homo sapiens, UniProt Q8TDR2)
Method in brief: as §1

TAK1 = molecular target: T7, TAK1 (Homo sapiens, UniProt O43318)
T7 construct: gene MAP3K7
Method in brief: as §1

TAOK1 = TAOK1 (Homo sapiens, UniProt Q7L7X3)
Method in brief: as §1

YANK2 = molecular target: T8, YANK2 (Homo sapiens, UniProt Q9NY57)
T8 construct: gene STK32B
Method in brief: as §1

T5 sequence (Q02750 whole entry): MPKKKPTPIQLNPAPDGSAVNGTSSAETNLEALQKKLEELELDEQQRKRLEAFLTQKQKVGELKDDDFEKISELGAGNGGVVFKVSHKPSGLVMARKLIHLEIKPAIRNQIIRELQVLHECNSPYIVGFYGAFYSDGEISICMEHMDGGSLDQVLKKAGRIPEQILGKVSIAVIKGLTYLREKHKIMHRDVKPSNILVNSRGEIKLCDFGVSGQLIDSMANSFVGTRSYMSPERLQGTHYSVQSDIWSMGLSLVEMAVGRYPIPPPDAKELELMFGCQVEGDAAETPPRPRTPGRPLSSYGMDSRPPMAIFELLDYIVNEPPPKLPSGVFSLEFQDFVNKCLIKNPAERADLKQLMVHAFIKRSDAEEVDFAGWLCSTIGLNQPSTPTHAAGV
Sequence of CDKL1 (Q00532 whole entry): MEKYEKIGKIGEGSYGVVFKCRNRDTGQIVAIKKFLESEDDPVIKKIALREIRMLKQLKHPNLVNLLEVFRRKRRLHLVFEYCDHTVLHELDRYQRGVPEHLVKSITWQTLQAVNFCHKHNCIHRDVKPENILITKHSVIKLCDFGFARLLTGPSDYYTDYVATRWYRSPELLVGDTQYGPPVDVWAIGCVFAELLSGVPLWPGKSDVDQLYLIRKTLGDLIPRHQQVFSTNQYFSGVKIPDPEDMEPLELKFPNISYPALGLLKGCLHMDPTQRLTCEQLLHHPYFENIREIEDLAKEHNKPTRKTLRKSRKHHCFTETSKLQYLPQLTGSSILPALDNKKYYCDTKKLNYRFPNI
Sequence of STK35 (Q8TDR2 whole entry): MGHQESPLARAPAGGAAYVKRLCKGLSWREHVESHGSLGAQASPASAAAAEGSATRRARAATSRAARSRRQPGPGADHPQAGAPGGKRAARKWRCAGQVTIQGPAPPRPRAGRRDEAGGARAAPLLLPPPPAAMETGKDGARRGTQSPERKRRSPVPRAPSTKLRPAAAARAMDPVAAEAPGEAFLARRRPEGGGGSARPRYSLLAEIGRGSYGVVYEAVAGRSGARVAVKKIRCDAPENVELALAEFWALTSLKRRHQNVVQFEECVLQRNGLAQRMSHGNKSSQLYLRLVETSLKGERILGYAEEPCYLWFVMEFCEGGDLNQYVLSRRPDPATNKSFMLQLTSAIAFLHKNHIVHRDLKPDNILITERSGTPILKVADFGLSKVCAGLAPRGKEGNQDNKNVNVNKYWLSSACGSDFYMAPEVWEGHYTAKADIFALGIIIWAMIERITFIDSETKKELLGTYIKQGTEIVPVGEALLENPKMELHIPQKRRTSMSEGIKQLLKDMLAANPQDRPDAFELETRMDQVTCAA
Sequence of PIK3CA(Q546K) (P42336 whole entry Q546K): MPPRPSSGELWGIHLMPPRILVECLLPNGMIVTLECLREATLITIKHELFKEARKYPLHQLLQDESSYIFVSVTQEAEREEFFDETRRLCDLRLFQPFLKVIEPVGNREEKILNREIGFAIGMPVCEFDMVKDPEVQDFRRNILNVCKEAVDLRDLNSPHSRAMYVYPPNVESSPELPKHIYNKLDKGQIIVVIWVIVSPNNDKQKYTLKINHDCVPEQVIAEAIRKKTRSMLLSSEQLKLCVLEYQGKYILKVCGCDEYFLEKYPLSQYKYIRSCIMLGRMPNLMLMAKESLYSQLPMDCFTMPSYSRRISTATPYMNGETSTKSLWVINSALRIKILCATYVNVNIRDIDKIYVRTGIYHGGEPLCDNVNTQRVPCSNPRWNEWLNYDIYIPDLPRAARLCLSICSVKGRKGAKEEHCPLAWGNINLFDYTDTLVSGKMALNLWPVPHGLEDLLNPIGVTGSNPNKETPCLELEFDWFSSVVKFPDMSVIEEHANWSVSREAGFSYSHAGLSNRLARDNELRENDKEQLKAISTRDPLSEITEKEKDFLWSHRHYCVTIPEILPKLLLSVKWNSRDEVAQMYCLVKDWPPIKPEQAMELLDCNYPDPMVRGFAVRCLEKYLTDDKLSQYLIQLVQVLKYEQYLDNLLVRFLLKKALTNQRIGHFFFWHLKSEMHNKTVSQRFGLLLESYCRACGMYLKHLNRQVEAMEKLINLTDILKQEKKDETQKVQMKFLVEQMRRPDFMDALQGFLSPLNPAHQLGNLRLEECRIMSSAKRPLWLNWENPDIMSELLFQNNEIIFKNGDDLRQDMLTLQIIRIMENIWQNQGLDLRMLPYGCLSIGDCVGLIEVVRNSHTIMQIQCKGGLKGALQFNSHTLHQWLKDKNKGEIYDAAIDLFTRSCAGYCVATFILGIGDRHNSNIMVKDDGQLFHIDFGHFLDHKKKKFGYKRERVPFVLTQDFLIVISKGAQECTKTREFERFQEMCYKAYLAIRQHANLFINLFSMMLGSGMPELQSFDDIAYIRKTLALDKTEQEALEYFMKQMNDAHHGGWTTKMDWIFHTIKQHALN
T1 sequence (P00519 whole entry): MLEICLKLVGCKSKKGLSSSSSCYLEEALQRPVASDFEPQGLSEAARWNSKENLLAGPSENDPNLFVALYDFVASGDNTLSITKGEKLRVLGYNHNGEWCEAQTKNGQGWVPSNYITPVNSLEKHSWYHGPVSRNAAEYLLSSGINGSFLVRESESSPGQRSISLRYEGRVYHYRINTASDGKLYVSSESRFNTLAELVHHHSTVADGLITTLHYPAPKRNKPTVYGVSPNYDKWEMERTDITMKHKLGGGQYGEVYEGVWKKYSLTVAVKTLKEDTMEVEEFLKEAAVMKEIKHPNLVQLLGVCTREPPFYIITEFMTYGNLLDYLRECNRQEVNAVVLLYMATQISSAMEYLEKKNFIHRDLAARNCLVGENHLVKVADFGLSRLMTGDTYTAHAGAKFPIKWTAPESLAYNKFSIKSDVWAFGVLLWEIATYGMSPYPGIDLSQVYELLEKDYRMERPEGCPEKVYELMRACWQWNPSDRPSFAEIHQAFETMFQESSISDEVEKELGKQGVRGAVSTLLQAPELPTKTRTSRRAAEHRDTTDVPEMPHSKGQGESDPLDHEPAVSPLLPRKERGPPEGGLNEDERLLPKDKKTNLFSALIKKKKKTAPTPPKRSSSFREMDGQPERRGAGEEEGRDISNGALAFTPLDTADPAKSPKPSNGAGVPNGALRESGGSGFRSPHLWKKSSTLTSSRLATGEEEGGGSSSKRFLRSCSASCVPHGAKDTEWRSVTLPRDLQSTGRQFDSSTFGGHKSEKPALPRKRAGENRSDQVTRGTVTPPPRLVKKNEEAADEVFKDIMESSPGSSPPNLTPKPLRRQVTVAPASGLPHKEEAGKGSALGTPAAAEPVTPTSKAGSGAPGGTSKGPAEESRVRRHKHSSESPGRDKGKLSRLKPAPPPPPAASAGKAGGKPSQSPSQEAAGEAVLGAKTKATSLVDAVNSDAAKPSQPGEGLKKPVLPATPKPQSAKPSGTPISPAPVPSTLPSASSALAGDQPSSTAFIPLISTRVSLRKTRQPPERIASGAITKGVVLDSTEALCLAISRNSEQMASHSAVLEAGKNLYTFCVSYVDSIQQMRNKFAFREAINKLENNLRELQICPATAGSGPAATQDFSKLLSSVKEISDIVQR
T8 sequence (Q9NY57 whole entry): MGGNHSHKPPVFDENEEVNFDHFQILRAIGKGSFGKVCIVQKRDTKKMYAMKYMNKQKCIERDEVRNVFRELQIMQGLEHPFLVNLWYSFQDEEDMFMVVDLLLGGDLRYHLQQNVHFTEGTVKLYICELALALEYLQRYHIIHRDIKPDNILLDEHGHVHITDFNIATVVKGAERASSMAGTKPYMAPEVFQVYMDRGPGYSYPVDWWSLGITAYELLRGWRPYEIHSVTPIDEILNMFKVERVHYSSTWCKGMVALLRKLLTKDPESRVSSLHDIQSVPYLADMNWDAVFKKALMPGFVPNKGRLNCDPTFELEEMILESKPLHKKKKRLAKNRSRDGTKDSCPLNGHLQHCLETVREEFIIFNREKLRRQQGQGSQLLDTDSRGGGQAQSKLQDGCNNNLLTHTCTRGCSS
Sequence of PLK4 (O00444 whole entry): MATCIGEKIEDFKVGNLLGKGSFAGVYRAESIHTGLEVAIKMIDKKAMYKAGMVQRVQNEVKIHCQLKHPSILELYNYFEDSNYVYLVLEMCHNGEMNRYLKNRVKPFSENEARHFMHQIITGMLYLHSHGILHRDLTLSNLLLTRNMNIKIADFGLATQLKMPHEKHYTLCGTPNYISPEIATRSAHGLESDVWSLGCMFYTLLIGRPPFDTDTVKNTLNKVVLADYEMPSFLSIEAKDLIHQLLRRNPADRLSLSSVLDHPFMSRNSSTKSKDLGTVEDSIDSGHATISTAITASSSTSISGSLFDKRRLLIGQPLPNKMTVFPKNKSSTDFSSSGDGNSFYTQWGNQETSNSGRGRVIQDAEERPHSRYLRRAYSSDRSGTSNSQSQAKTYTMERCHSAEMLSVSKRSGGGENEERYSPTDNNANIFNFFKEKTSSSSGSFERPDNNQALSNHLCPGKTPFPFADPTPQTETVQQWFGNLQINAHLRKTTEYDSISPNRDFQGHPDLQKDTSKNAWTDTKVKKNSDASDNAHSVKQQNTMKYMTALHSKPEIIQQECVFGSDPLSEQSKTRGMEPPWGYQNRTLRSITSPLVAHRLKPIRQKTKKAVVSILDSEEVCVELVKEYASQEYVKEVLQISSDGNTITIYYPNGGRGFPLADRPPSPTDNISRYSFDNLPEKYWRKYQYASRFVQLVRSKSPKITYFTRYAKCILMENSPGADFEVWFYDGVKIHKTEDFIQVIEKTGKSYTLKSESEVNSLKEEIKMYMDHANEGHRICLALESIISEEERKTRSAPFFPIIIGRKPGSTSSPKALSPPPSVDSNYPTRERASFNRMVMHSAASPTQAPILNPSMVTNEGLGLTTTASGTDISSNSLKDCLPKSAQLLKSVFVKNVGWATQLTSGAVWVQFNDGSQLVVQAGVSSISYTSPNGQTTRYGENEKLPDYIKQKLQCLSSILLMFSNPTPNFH

Structure (SMILES): CNS(=O)(=O)c1ccc(N(C)C)c(Nc2nc(C)nc3cc(OC)c(OC)cc23)c1 [compound 15, 3-((6,7-dimethoxy-2-methylquinazolin-4-yl)amino)-4-(dimethylamino)-N-methylbenzenesulfonamide]
- inhibition at 1 µM (ABL1-phosphorylated): 0%
- inhibition at 1 µM (AKT3): 4%
- inhibition at 1 µM (ALK): 10%
- inhibition at 1 µM (CDC2L1): 7%
- inhibition at 1 µM (CDK4): 21%
- inhibition at 1 µM (CDKL1): 2%
- inhibition at 1 µM (DDR1): 0%
- inhibition at 1 µM (DLK): 12%
- inhibition at 1 µM (EGFR(G719C)): 0%
- inhibition at 1 µM (EPHA8): 3%
- inhibition at 1 µM [1]: 10%
- inhibition at 1 µM (KIT(D816V)): 4%
- inhibition at 1 µM (MEK1): 18%
- inhibition at 1 µM (NEK3): 0%
- inhibition at 1 µM (PDGFRA): 10%
- inhibition at 1 µM (PIK3CA(Q546K)): 37%
- inhibition at 1 µM (PLK4): 23%
- inhibition at 1 µM (PRKCI): 25%
- inhibition at 1 µM (RIPK2): 4%
- inhibition at 1 µM [2]: 0%
- inhibition at 1 µM (STK35): 0%
- inhibition at 1 µM (TAK1): 24%
- inhibition at 1 µM (TAOK1): 15%
- inhibition at 1 µM (YANK2): 0%
